Laboratory results published in PubChem BioAssay (NCI).
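In this assay, cells in 96-well plates receive the compound at five concentrations for 48 hours. Endpoints are linearly interpolated between the surrounding concentrations. TGI: concentration producing complete growth inhibition.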

Assays:
Experiment in all cases: NCI tumour cell line growth inhibition, 48 h
HOP-18 NSCLC = tested on: HOP-18 NSCLC
XF 498 CNS = tested on: XF 498 CNS
SNB-78 CNS = tested on: SNB-78 CNS
DLD-1 colon = tested on: DLD-1 colon
DMS 114 small cell lung = tested on: DMS 114 small cell lung
RXF-631 renal = tested on: RXF-631 renal
LXFL 529 NSCLC = tested on: LXFL 529 NSCLC
P388/ADR leukemia = tested on: P388/ADR leukemia
SN12K1 renal = tested on: SN12K1 renal
P388 leukemia = tested on: P388 leukemia

SMILES	TGI (HOP-18 NSCLC) [µM]	TGI (XF 498 CNS) [µM]	TGI (SNB-78 CNS) [µM]	TGI (DLD-1 colon) [µM]	TGI (DMS 114 small cell lung) [µM]	TGI (RXF-631 renal) [µM]	TGI (LXFL 529 NSCLC) [µM]	TGI (P388/ADR leukemia) [µM]	TGI (SN12K1 renal) [µM]	TGI (P388 leukemia) [µM]
COc1ccc(CNc2cnc3ccc(N)cc3n2)cc1	> 100	> 100	> 100	> 100	> 100	–	–	–	–	–
COC(=O)CC(=O)OSc1ccccc1	–	–	–	48	25.6	25	–	–	–	–
O=[N+]([O-])c1ccc(C[P+]2(c3ccccc3)CCCCC2)cc1	> 100	–	–	> 100	> 100	–	> 100	–	–	–
COc1cc2ccc3c4cc(OC)c(OC)cc4c[n+](C)c3c2cc1O	> 100	> 88.1	> 100	> 100	> 82.9	–	> 100	–	–	–
CC1=NN(C(=O)Cc2ccccc2)C(=O)/C1=C\c1ccc(O)cc1	–	> 100	> 100	> 100	> 100	–	> 100	–	–	–
CN(C)CCNC(=O)c1cccc2c1Nc1ccccc1S2	24.4	25.3	27.7	29.7	20	–	–	9.51	20.7	6.23
CSCC[C@@H](NC(=O)[C@H](CC(C)C)NC(=O)C(Cc1cnc[nH]1)NC(=O)CNC(=O)[C@@H](NC(=O)[C@H](C)NC(=O)[C@H](Cc1c[nH]c2ccccc12)NC(=O)[C@H](CCC(N)=O)NC(=O)[C@@H](N)CC(N)=O)C(C)C)C(N)=O (stereo partly specified)	> 100	> 100	> 100	> 100	> 100	–	–	> 100	> 100	> 100
N#CNC(N)=NCc1ccccc1	–	–	–	> 100	> 100	–	> 100	–	–	–
Cc1cc([N+](=O)[O-])c(C)c2c1[nH]c1ccc(Cl)cc12	> 100	> 100	> 100	–	> 100	–	–	–	–	–
COc1cc(C)c(CC/C(C)=C/Cc2cc(O)ccc2O)c(C)c1C	> 25	> 25	–	> 25	> 25	–	> 25	–	–	–
CCOC(=O)C1C(c2ccc(Cl)cc2Cl)NC(c2ccc(C)cc2)C(C(=O)OC)S1(=O)=O (stereo unspecified)	–	> 100	> 100	> 100	–	–	> 100	–	–	–
CC(=O)NNc1nc(C)c(C(=O)NNC(=O)C(=O)Nc2ccc([N+](=O)[O-])cc2[N+](=O)[O-])s1	–	> 100	> 100	> 100	> 100	> 100	> 100	–	–	–
